The source of these data is PubChem BioAssay (NCI).

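Each compound was tested at five concentrations against cells in 96-well plates for 48 hours. GI50 marks 50% less growth. At the TGI there is no net growth.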

Test systems include UO-31 renal; SR leukemia; HOP-62 NSCLC; HT29 colon; KM12 colon; UACC-62 melanoma; TK-10 renal; NCI-H226 lung; IGROV1 ovarian.
Holding throughout (experiment): NCI tumour cell line growth inhibition, 48 h

On to `COc1c(C)n(CCO)ccc1=O`, for which the TGI in the assay with UO-31 renal, in the assay on SR leukemia, in the assay on HOP-62 NSCLC, with HT29 colon, with KM12 colon and in the assay with UACC-62 melanoma was over 100 µM each time. Further, the TGI in the assay on TK-10 renal and with NCI-H226 lung was over 100 µM each time.
Regarding `CCOC(=O)NC(=O)c1cn(C(CC)COC(=O)NCCCCCCNC(=O)OCC(CC)n2cc(C(=O)NC(=O)OCC)c(=O)[nH]c2=O)c(=O)[nH]c1=O` (stereo not drawn), the TGI with UO-31 renal, in the assay on HOP-62 NSCLC, in the assay on HT29 colon, in the assay on KM12 colon, in the assay with UACC-62 melanoma and in the assay with IGROV1 ovarian was over 100 µM in each case. In the assay with NCI-H226 lung, this compound showed a TGI of over 100 µM.
Turning to `COC(=O)/C(=N/O)C(C(=O)C=C(C)C)C(=O)C(=O)Nc1nc2ccc([N+](=O)[O-])cc2s1` (stereo not drawn), the TGI in the assay with UO-31 renal is 92.8 µM; with SR leukemia, over 100 µM; with HOP-62 NSCLC, over 100 µM; in the assay on HT29 colon it was over 100 µM; in the assay with KM12 colon, over 100 µM; in the assay with UACC-62 melanoma it was over 100 µM. The TGI in the assay on TK-10 renal is 95.8 µM; in the assay on IGROV1 ovarian, over 100 µM; with NCI-H226 lung, 72.1 µM.
As for `CCOCN1COCN(C)C1=O`, the TGI with UO-31 renal, in the assay on HOP-62 NSCLC, in the assay on HT29 colon, with KM12 colon, with UACC-62 melanoma and in the assay with TK-10 renal was over 100 µM in each case. The TGI with IGROV1 ovarian and in the assay with NCI-H226 lung was over 100 µM in each case.
Take `Cc1cc2c(c(C(N)=O)c1C)-c1ccccc1C2=O`: the TGI with UO-31 renal, in the assay on HOP-62 NSCLC, in the assay on HT29 colon, with KM12 colon, in the assay with UACC-62 melanoma and with TK-10 renal was over 100 µM throughout. In addition, in the assay on IGROV1 ovarian, the TGI is over 100 µM.
`CCC(C)(O)c1cnc(CC(C)C)c(=O)n1O` (stereo not drawn): the TGI is over 100 µM in the assay with UO-31 renal; 62.6 µM with SR leukemia; over 100 µM in the assay with HOP-62 NSCLC; over 100 µM with HT29 colon; over 100 µM in the assay with KM12 colon; over 100 µM with UACC-62 melanoma. The TGI in the assay with TK-10 renal and in the assay on IGROV1 ovarian was over 100 µM throughout.
Take `O=C(Cc1nc2c3c(ccc2[nH]c1=O)C(=O)c1ccccc1C3=O)C(=O)Nc1ccccc1[N+](=O)[O-]`: the TGI in the assay on UO-31 renal was over 100 µM; in the assay with SR leukemia, 51.1 µM; in the assay on HOP-62 NSCLC, 39.2 µM; in the assay on HT29 colon it was 41.7 µM; in the assay with KM12 colon, 43 µM; in the assay on UACC-62 melanoma, 59 µM. Besides, the TGI in the assay on TK-10 renal is 44.8 µM; in the assay on IGROV1 ovarian, 65.4 µM; with NCI-H226 lung, 40.5 µM.
Take `COc1cccc(/C=N/[N-]C(=O)c2ccncc2)c1[O-].COc1cccc(/C=N/[N-]C(=O)c2ccncc2)c1[O-].[O]=[U](=[O])([OH2+])[OH2+]`: the GI50 with UO-31 renal was 3.45 µM; with SR leukemia it was 3.37 µM; in the assay with HOP-62 NSCLC, 3.71 µM; in the assay with HT29 colon, 30.7 µM; with KM12 colon, 36.3 µM; in the assay with UACC-62 melanoma it was 3.66 µM. The GI50 in the assay on TK-10 renal is 13.1 µM; in the assay with IGROV1 ovarian it was 9.59 µM; in the assay on NCI-H226 lung, 5.01 µM. Besides, the TGI with UO-31 renal was 20 µM; with SR leukemia, over 100 µM; in the assay with HOP-62 NSCLC, 24.9 µM; in the assay with HT29 colon it was over 100 µM; with KM12 colon, over 100 µM; with UACC-62 melanoma it was 19.4 µM. In addition, the TGI with TK-10 renal was over 31.6 µM; with IGROV1 ovarian, over 90.4 µM; in the assay with NCI-H226 lung, 28 µM.
As for `Nc1c(-c2ccccc2-c2c(N)[n+]([O-])c3ccccc3[n+]2[O-])[n+]([O-])c2ccccc2[n+]1[O-]`, the TGI with UO-31 renal is over 100 µM; in the assay with SR leukemia, 37.3 µM; in the assay on HT29 colon, over 100 µM; in the assay with KM12 colon it was 50.2 µM; in the assay with UACC-62 melanoma, 26.5 µM; in the assay on TK-10 renal, over 100 µM. In the assay with NCI-H226 lung, the TGI was over 100 µM.
Consider `Cn1c(=O)nc2n(-c3cc(C(F)(F)F)cc(C(F)(F)F)c3)c3ccccc3nc-2c1=O`, for which the TGI in the assay with UO-31 renal, in the assay with SR leukemia, in the assay on HOP-62 NSCLC, with HT29 colon, with KM12 colon and in the assay with TK-10 renal was over 100 µM each time. The TGI in the assay on IGROV1 ovarian and with NCI-H226 lung was over 100 µM in each case.
With `CCC1CN2CCc3cc(OC)c(OC)cc3C2CC1CC1c2cc(OC)c(OC)cc2CCN1C(=O)C1CCCN1` (stereo not drawn), the TGI in the assay with UO-31 renal was 47.4 µM; in the assay with SR leukemia, 85.1 µM; in the assay on HOP-62 NSCLC it was 71.2 µM; with HT29 colon, over 100 µM; with KM12 colon, over 100 µM; with TK-10 renal, over 100 µM. Besides, the TGI in the assay on IGROV1 ovarian was determined as 71.7 µM; in the assay on NCI-H226 lung it was 96.7 µM.
For `COC(=O)/C([Se]c1c(C)cc(C)cc1C)=C(/[Se]c1c(C)cc(C)cc1C)C(=O)OC`, the TGI with UO-31 renal, with SR leukemia, in the assay with HOP-62 NSCLC, with HT29 colon, in the assay with KM12 colon and in the assay with UACC-62 melanoma was over 100 µM throughout. The TGI with TK-10 renal, in the assay on IGROV1 ovarian and with NCI-H226 lung was over 100 µM throughout.
For the compound `CC(C(=O)c1ccc(Cl)cc1)/C(=N/NC(=O)NN)C(=O)Nc1cccc(C(F)(F)F)c1` (stereo not drawn), the TGI in the assay with UO-31 renal, with HT29 colon, with UACC-62 melanoma, in the assay on TK-10 renal, in the assay on IGROV1 ovarian and in the assay on NCI-H226 lung was over 100 µM each time.
Consider `Cc1ccccc1C1=[N+]([O-])c2ccc(Cl)cc2C1=O`, for which the TGI with UO-31 renal came out at 31.2 µM; in the assay with SR leukemia, 64.2 µM; in the assay on HOP-62 NSCLC, 42.6 µM; with HT29 colon, 20.3 µM; in the assay with KM12 colon it was 27.1 µM; in the assay with UACC-62 melanoma, 24.9 µM. In addition, the TGI in the assay on TK-10 renal came to 34.5 µM; in the assay on IGROV1 ovarian, 29.8 µM; with NCI-H226 lung, 30.6 µM.
For `CC(C)=C1CCC(CN(C)C)C1=O` (stereo not drawn), the TGI was over 100 µM with UO-31 renal; 36.5 µM in the assay with SR leukemia; 41.1 µM with HT29 colon; over 100 µM with KM12 colon; 35.1 µM in the assay with UACC-62 melanoma; 31 µM with TK-10 renal. Moreover, the TGI in the assay with IGROV1 ovarian was over 100 µM.
